Experiment [1] has as its target Cyclin-dependent kinase 5 (Homo sapiens, UniProt Q00535).
The target of experiment [2] is Serine/threonine-protein kinase 24 (Homo sapiens, UniProt Q9Y6E0).
Experiment [3] deals with Fibroblast growth factor receptor 3 (Homo sapiens, UniProt P22607).
The target of experiment [4] is Dual specificity testis-specific protein kinase 1 (Homo sapiens, UniProt Q15569).
The target in experiment [5] is T1, Tyrosine-protein kinase Mer (Homo sapiens, UniProt Q12866).
T1 sequence (Q12866 whole entry): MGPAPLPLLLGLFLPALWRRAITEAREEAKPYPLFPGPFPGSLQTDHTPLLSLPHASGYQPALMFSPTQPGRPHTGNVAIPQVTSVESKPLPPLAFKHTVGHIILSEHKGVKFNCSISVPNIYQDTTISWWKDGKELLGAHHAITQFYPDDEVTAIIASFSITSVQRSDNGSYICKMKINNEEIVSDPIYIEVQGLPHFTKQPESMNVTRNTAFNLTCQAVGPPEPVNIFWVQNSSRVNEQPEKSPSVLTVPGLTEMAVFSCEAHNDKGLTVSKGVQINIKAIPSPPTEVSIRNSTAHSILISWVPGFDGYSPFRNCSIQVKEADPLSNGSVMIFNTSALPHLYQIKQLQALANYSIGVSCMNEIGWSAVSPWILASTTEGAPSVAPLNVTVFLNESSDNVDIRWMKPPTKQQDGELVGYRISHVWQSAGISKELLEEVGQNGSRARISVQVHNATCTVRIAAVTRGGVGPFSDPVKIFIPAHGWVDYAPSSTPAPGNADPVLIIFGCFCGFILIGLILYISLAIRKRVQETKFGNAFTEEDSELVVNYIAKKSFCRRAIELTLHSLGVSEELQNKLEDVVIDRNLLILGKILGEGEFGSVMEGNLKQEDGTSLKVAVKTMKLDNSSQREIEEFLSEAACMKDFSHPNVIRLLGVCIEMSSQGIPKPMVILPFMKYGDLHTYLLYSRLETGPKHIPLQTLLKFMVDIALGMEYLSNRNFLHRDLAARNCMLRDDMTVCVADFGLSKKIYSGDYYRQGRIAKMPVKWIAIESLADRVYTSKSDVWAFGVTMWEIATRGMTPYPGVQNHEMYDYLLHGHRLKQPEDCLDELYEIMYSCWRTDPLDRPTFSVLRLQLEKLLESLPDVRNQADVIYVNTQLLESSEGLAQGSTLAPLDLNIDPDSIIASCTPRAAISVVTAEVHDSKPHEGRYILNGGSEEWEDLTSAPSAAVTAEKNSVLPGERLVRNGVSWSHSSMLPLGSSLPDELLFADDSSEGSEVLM

Experiment [6] addresses T2, Mitogen-activated protein kinase 15 (Homo sapiens, UniProt Q8TD08).
T2 sequence (Q8TD08 whole entry): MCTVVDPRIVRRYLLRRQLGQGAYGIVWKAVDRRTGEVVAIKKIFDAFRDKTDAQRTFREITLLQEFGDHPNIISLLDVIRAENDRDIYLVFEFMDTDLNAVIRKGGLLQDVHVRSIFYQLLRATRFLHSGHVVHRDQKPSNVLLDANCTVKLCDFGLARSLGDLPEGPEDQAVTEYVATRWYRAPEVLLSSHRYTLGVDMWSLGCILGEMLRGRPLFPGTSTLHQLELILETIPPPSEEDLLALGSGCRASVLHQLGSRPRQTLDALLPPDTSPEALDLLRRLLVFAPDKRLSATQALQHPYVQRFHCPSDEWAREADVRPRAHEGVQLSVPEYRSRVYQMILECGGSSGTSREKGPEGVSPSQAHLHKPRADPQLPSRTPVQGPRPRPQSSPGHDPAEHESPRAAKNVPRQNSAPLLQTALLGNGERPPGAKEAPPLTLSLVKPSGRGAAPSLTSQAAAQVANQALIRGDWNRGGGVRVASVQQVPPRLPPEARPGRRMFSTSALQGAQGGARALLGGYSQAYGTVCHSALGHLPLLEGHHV

For experiment [7], the target named is Serine/threonine-protein kinase MARK1 (Homo sapiens, UniProt Q9P0L2).
For experiment [8], the target named is SRSF protein kinase 2 (Homo sapiens, UniProt P78362).
The target of experiment [9] is Mitogen-activated protein kinase kinase kinase 4 (Homo sapiens, UniProt Q9Y6R4).
For experiment [10], the target named is T3, Ephrin type-A receptor 8 (Homo sapiens, UniProt P29322).
T3 sequence (P29322 whole entry): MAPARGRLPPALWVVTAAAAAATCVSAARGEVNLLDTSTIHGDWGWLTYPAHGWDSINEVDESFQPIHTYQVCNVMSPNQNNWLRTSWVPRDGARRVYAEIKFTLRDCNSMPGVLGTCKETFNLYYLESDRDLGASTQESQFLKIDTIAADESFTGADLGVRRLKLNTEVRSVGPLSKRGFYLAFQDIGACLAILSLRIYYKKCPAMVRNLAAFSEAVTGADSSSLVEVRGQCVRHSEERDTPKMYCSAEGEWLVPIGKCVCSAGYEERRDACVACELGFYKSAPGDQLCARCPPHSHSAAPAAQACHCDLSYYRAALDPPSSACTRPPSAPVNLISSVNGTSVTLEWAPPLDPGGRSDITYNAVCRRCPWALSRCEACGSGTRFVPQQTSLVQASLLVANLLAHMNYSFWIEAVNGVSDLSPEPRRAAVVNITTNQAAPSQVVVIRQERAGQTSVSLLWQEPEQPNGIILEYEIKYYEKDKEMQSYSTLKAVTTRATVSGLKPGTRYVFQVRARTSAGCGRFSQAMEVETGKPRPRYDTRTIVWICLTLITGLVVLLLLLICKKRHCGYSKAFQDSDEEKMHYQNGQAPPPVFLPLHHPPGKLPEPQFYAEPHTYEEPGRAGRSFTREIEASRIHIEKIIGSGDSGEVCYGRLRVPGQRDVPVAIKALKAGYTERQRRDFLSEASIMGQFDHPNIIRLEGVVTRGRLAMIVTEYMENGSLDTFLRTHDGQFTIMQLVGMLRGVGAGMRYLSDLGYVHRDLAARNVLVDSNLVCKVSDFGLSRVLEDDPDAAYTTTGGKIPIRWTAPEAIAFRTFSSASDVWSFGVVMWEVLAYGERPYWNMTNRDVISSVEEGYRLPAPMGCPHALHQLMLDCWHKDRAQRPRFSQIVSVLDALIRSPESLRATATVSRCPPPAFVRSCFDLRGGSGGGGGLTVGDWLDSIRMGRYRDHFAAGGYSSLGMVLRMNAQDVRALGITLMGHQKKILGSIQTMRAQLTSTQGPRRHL

Mitogen-activated protein kinase kinase kinase 4, sequence (Q9Y6R4 whole entry): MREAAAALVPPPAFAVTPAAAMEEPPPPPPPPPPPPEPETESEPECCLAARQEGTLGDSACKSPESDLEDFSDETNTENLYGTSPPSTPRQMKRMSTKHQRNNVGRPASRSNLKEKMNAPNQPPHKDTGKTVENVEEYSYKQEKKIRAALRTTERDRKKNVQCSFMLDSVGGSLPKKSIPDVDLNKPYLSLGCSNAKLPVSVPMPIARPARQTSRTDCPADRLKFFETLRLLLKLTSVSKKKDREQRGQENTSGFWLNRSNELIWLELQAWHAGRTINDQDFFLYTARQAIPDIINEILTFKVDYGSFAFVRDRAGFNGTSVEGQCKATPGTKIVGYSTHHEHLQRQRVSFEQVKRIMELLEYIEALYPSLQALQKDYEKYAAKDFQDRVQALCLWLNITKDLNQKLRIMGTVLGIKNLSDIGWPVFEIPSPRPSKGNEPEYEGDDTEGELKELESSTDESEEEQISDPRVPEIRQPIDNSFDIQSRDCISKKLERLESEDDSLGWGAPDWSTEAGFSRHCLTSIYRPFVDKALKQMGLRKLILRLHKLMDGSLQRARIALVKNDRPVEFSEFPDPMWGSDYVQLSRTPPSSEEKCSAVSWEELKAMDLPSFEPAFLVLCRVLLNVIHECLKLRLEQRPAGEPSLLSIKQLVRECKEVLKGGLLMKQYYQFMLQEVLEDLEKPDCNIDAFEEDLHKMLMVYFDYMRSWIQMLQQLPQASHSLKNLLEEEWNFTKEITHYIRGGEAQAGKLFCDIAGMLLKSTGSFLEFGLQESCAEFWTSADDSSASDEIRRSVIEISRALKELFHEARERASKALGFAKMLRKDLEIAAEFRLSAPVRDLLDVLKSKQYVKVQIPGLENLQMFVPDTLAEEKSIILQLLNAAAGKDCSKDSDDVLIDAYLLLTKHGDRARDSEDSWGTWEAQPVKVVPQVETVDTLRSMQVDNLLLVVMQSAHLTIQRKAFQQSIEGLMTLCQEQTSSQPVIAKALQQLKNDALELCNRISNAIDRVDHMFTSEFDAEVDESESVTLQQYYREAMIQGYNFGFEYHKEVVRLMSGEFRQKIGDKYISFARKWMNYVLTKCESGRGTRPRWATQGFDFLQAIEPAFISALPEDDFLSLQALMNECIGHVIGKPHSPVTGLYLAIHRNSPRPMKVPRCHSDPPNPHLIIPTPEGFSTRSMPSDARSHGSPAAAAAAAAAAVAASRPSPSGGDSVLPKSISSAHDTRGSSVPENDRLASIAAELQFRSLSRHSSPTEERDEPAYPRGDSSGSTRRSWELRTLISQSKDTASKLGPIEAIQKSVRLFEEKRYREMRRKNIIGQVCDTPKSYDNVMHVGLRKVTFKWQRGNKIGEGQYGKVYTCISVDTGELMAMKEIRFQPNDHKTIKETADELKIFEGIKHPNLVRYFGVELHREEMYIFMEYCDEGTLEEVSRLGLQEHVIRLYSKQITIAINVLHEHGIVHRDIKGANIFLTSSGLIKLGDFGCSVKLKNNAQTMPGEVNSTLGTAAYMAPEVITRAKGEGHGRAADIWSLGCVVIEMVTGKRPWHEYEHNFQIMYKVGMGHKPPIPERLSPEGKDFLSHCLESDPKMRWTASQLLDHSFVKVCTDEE
SRSF protein kinase 2, sequence (P78362 whole entry): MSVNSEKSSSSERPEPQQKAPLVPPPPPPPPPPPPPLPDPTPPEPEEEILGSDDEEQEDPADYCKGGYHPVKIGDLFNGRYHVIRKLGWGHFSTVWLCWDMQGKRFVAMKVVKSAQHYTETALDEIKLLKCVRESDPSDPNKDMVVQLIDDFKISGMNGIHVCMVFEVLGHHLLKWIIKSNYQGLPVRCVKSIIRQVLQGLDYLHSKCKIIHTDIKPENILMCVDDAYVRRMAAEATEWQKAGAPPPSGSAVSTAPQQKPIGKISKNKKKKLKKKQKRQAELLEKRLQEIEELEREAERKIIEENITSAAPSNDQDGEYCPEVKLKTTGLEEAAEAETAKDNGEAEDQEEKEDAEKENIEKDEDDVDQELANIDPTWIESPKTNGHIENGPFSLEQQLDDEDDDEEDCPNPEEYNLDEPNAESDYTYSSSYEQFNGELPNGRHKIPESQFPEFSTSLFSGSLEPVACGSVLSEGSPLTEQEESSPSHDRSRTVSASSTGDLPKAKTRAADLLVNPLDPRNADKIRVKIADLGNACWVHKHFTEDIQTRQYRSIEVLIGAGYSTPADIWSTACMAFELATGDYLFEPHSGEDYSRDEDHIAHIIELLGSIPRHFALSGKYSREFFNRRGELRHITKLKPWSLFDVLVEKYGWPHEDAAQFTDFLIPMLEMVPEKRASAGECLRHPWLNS
Serine/threonine-protein kinase 24, sequence (Q9Y6E0 whole entry): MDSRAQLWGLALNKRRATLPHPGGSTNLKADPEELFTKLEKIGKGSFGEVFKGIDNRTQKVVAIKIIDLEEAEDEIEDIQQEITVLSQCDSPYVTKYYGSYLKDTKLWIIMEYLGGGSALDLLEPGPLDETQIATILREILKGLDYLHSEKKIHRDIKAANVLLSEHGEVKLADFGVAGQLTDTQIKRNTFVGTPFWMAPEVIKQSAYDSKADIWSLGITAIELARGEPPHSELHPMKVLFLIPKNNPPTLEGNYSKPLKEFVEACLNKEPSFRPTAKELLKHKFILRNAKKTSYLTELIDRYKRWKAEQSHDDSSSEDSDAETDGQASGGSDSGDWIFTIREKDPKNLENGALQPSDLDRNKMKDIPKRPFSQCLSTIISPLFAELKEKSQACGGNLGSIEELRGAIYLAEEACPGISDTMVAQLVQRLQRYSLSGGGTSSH
Serine/threonine-protein kinase MARK1, sequence (Q9P0L2 whole entry): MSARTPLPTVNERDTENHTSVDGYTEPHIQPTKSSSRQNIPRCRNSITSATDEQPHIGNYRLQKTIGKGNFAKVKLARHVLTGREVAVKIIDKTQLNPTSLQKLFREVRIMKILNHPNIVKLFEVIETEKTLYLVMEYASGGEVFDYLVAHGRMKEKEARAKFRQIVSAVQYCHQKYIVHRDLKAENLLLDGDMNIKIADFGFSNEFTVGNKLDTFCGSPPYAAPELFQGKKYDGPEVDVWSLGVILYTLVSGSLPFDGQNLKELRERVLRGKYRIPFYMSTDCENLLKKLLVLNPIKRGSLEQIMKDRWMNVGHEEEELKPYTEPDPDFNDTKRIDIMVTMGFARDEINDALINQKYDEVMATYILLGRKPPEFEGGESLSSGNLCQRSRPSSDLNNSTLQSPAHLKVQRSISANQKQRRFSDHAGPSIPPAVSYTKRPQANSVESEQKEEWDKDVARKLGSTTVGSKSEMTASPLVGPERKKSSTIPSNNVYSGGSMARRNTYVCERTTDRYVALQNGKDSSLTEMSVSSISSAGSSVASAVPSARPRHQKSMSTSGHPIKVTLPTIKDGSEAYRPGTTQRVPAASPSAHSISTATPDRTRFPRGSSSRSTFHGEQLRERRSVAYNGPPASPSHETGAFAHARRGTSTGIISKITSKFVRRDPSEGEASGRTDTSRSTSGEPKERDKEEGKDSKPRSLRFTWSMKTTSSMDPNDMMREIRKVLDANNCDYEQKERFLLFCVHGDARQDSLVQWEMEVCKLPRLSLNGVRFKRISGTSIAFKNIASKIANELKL
Dual specificity testis-specific protein kinase 1, sequence (Q15569 whole entry): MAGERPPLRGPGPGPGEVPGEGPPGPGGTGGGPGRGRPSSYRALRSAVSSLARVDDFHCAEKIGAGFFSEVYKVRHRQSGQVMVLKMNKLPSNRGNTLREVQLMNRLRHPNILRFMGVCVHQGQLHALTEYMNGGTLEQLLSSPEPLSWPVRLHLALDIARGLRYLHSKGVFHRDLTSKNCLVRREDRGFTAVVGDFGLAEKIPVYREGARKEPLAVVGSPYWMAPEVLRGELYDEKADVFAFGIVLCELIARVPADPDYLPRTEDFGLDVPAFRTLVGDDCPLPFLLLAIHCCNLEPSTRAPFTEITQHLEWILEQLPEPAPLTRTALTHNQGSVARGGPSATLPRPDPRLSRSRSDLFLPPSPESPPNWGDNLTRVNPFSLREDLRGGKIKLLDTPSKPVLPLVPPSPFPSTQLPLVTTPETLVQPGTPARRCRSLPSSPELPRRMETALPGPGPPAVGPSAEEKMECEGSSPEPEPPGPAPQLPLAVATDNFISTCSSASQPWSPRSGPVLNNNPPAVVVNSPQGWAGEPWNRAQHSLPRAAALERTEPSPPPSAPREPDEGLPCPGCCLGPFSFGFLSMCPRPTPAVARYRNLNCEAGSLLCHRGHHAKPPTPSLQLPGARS
Fibroblast growth factor receptor 3, sequence (P22607 whole entry): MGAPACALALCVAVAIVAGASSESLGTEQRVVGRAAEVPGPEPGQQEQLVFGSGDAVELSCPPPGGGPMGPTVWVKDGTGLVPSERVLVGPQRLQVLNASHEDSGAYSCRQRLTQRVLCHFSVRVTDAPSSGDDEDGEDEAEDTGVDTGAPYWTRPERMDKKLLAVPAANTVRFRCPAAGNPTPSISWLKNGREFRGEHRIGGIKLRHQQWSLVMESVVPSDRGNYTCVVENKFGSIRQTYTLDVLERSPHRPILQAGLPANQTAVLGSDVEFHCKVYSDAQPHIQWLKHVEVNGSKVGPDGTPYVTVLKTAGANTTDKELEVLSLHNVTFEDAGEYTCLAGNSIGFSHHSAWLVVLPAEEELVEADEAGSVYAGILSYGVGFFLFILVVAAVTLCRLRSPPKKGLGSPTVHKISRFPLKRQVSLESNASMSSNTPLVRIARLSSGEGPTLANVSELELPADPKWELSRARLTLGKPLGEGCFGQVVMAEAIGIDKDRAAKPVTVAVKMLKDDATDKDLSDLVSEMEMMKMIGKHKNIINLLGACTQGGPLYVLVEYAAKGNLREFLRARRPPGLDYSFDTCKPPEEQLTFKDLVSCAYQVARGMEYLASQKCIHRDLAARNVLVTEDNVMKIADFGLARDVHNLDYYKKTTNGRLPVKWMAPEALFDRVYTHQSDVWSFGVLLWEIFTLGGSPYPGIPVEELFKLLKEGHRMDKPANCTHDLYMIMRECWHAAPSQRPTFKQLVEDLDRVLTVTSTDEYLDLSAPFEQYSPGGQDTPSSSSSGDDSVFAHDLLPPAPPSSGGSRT

Broadly, the Kd is the constant that tells how readily two partners part at equilibrium. Low readings indicate higher affinity, high ones lower affinity. Turning to `CCN1CCN(Cc2ccc(NC(=O)Nc3ccc(Oc4cc(NC)ncn4)cc3)cc2C(F)(F)F)CC1` [AST-487], the Kd is 1 µM in [1], greater than 10 µM in [2] and greater than 10 µM in [3].

Consider `COCC(=O)NC/C=C/c1ccc2ncnc(Nc3ccc(Oc4ccc(C)nc4)c(C)c3)c2c1` [CP-724714], for which the Kd in experiment [4], in experiment [1], in [5], in experiment [6], in [7] and in experiment [8] was greater than 10 µM in each case. Also, the Kd in experiment [9], in [2], in experiment [10] and in experiment [3] was greater than 10 µM in each case.

Turning to `Nc1nc(Nc2ccc(S(N)(=O)=O)cc2)nn1C(=O)c1c(F)cccc1F` [JNJ-7706621], the Kd in experiment [4] was 3.1 µM; in [8], greater than 10 µM; in [9], greater than 10 µM; in [10], greater than 10 µM.

As to `CCOc1cc2ncc(C#N)c(Nc3ccc(F)c(Cl)c3)c2cc1NC(=O)/C=C/CN(C)C` [PELITINIB], the Kd in experiment [4] is greater than 10 µM; in experiment [1], greater than 10 µM; in experiment [5] it was 1.3 µM; in experiment [6] it was greater than 10 µM; in [8], greater than 10 µM; in experiment [2] it was 2.1 µM. This compound gave a Kd in experiment [3] greater than 10 µM.

Consider `Oc1ccc(-c2nc(-c3ccncc3)c(-c3ccc(F)cc3)[nH]2)cc1` [SB-202190], for which the dissociation constant Kd in [4], in experiment [1], in experiment [5], in experiment [6], in experiment [7] and in experiment [8] was greater than 10 µM each time. The Kd in experiment [9], in experiment [2], in [10] and in experiment [3] was greater than 10 µM throughout.

On to `NC(=O)c1ccc(-c2nc(-c3ccc4c(c3)OCO4)c(-c3ccccn3)[nH]2)cc1` [SB-431542], for which the Kd in experiment [1], in experiment [5], in experiment [6], in experiment [7], in [8] and in experiment [9] was greater than 10 µM throughout. Moreover, the Kd in experiment [2], in experiment [10] and in [3] was greater than 10 µM each time.
